The text below walks through data of PMC6205183 (Oncotarget, 2018).

One data set concerns K562-R cells. The data set can be described thus: Viability assay (Annexin V/7AAD), K562-R. Type of data set: cell-based, human. Particulars: for viability on co-treatment with ponatinib / IC50: K562-R; for viability on co-treatment with ponatinib: compared to control line; for IC50: read-out: TKI viability assay IC50. Here is the method:
(§1) Cells were removed from drug-containing culture medium, washed and re-cultured in fresh media (with testing drug) for 72 hours. Cells then were stained with 7-Amino-actinomycin D (7AAD) and Annexin V-PE. Flow cytometry (BD LSRFortessaTM X-20 with high-throughput platform) was performed to determine cell viability: cells stained positive for Annexin V-PE and 7AAD were considered to be apoptotic or dead respectively. The data were analysed using FCS Express software (DeNovo Software, Los Angeles, California, USA).

Data set [1] deals with Axl. Particulars: no reference given; cited from earlier work.
In another data set the test system is K562 DOX-R cells. The data set can be described thus: Viability assay (Annexin V/7AAD), K562 DOX-R. It is filed as cell-based, human. Particulars: for viability on co-treatment with ponatinib / IC50: K562 DOX-R; for viability on co-treatment with ponatinib: compared to control line; for IC50: read-out: TKI viability assay IC50. Here is the method:
as §1

The subject of data set [2] is K562-R-scramble CTL cells. The experiment in a line: Viability assay, scramble shRNA K562-R. It is filed as cell-based, human. Particulars: K562-R scrambled shRNA control, 10 nM ponatinib, 72 hours, n=3. As for the experimental part: (§2) Stable AXL knock-down K562-R-AXL KD, and K562 DOX-R-AXL KD cell lines were generated, as well as the scramble control lines K562-R-scramble CTL, and K562 DOX-R-scramble CTL.
as §1
(§3) The GFP level and Axl expression level were measured after fluorescence-activated cell sorting (FACS) and before each experiment to ensure purity.

For a further data set, the system named is K562 cells. The experiment in a line: Viability assay (Annexin V/7AAD), K562 control. Particulars: 200 nM ponatinib, three days. It is filed as cell-based, human. Here is the method: (§4) Flow cytometry (BD LSRFortessaTM X-20 with high-throughput platform) was performed to determine cell viability: cells stained positive for Annexin V-PE and 7AAD were considered to be apoptotic or dead respectively. […]

The next data set relates to K562 DOX cells. The experiment in a line: Viability assay (Annexin V/7AAD), K562 DOX control. Type of data set: cell-based, human. Particulars: 200 nM ponatinib, three days. Here is the method:
as §4

Another data set relates to K562-R-AXL KD cells. The data set can be described thus: Viability assay, AXL knock-down K562-R. Type of data set: cell-based, human. Conditions: 10 nM ponatinib, 72 hours, n=3. Here is the method:
as §2, §1, §3

For data set [3] the following is noted: 45 mg once daily; cited from earlier work.
A further data set deals with K562 DOX-R-AXL KD cells. The experiment in a line: Viability assay, AXL knock-down K562 DOX-R. It is filed as cell-based, human. Particulars: 10 nM ponatinib, 72 hours, n=3. Here is the method: as §2, §1, §3
The subject of data set [4] is K562 DOX-R-scramble CTL cells. The experiment in a line: Viability assay, scramble shRNA K562 DOX-R. Particulars: K562 DOX-R scrambled shRNA control, 10 nM ponatinib, 72 hours, n=3. Type of data set: cell-based, human. Here is the method: as §2, §1, §3
In data set [5] the test system is Axl. The arrangement: method as in PMID 20080645, PMID 16230391, PMID 20603615, PMID 20145120. Particulars: cited from earlier work.
A further data set relates to K562 T315I-R cells. The data set can be described thus: cells. Conditions: Homo sapiens, K562, read-out: TKI viability assay IC50. Here is the method: as §1
A further data set has as its system K562 DOX 55D-R cells. The experiment in a line: cells. Particulars: Homo sapiens, K562, read-out: TKI viability assay IC50. As for the experimental part:
as §1

By viability is commonly meant a per cent measure of how many cells are alive, often set against a control. Lower therefore signals a greater loss of cells. One may read the IC50 as the concentration at which inhibition is half-maximal.

Each structure is given as a SMILES string. Entries after “also recorded” stand apart in the source; their conditions may differ.

In the case of `CCOc1ccn(-c2ccc(F)cc2)c(=O)c1C(=O)Nc1ccc(Oc2ccnc(N)c2Cl)c(F)c1` [BMS-777607], the “viability on co-treatment with ponatinib” value in the data set on K562-R cells (12.5 μM BMS777607 + 200 nM ponatinib, n=3, p=0.03) is on record as “significantly reduced; also recorded: induced cell death significantly”; with K562 DOX-R cells (12.5 μM BMS777607 + 200 nM ponatinib, n=4, p<0.01), “significantly reduced; also recorded: induced cell death significantly”. Also, in the data set on Axl [1], the “potency against Axl relative to MET” value is 3 times.
As to `Cc1ccc(C(=O)Nc2ccc(CN3CCN(C)CC3)c(C(F)(F)F)c2)cc1C#Cc1cnc2cccnn12` [ponatinib, 3-[2-(imidazo[1,2-b]pyridazin-3-yl)ethynyl]-4-methyl-N-{4-[(4-methylpiperazin-1-yl)methyl]-3-(trifluoromethyl)phenyl}benzamide], the viability at 0.2 µM in the data set with K562-R cells (Homo sapiens, K-562R, 72 h) was above 75%; in the data set with K562 DOX-R cells (Homo sapiens, K562, 72 h), above 75%. In addition, the reduction in viability turned out to be 22% in data set [2], 68% in the data set with K562-R-AXL KD cells, 53% in the data set with K562 DOX-R-AXL KD cells and 16% in [4]. The “sensitivity to ponatinib (viability)” value in the data set with K562 cells and in the data set on K562 DOX cells was “demonstrated sensitivity” throughout. The “medium human peak plasma level” value in [3] was 145 nM. Also, the “medium human trough plasma level” value in data set [3] was 64 nM.
In the case of `Nc1nc(Nc2ccc3c(c2)CCC(N2CCCC2)CC3)nn1-c1cc2c(nn1)-c1ccccc1CCC2` (stereo not drawn) [R428], the “viability on co-treatment with ponatinib” value was “significantly reduced; also recorded: induced cell death significantly” in the data set with K562-R cells (1 μM R428 + 200 nM ponatinib, n=3, p=0.02) and “significantly reduced; also recorded: induced cell death significantly” in the data set with K562 DOX-R cells (1 μM R428 + 200 nM ponatinib, n=4, p=0.02). The “specificity in targeting Axl over the other TAM family members (Mer and Tyro3)” value with Axl [5] is listed as 50 to 100 fold.
Consider `Cc1nc(Nc2ncc(C(=O)Nc3c(C)cccc3Cl)s2)cc(N2CCN(CCO)CC2)n1` [dasatinib], for which the IC50 is above 200 nM in the data set on K562-R cells (Homo sapiens, K-562R); above 200 nM in the data set on K562 T315I-R cells; above 200 nM with K562 DOX 55D-R cells; above 200 nM with K562 DOX-R cells (Homo sapiens).
For `Cc1cn(-c2cc(NC(=O)c3ccc(C)c(Nc4nccc(-c5cccnc5)n4)c3)cc(C(F)(F)F)c2)cn1` [nilotinib], the IC50 in the data set on K562-R cells (Homo sapiens, K-562R) was above 1000 nM; in the data set on K562 T315I-R cells it was above 1000 nM; in the data set with K562 DOX 55D-R cells it was above 1000 nM; in the data set with K562 DOX-R cells (Homo sapiens), above 1000 nM.
